# From patent publication US11981658B2, “Substituted aminopyridine compounds as EGFR inhibitors” (YUHAN CORPORATION, priority 2021, dated 2024)
# Read-outs that look alike come from different tables or passages of the source.
# Assays:
# [1] = biological target: EGFR L858R/T790M/C797S (Homo sapiens, UniProt P00533, C797S/L858R/T790M); test: Biochemical EGFR kinase inhibition assay (Lance Ultra TR-FRET), triple mutant L858R/T790M/C797S
# Summary of the method: (§1)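 In this biochemical assay, phosphorylation after a one-hour room-temperature reaction was detected with europium-labelled anti-phosphopeptide antibody at 2 nM final concentration.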
# [2] = biological target: EGFR L858R/C797S (Homo sapiens, UniProt P00533, C797S/L858R); test: Biochemical EGFR kinase inhibition assay (Lance Ultra TR-FRET), double mutant L858R/C797S
# Summary of the method: as §1
# [3] = biological target: EGFR Del19/T790M/C797S (Homo sapiens, UniProt P00533, C797S/DEL746-750/T790M); test: Biochemical EGFR kinase inhibition assay (Lance Ultra TR-FRET), triple mutant del19/T790M/C797S
# Summary of the method: as §1
# [4] = biological target: EGFR Del19/C797S (Homo sapiens, UniProt P00533, C797S/DEL746-750); test: Biochemical EGFR kinase inhibition assay (Lance Ultra TR-FRET), double mutant del19/C797S
# Summary of the method: as §1
# [5] = biological target: EGFR wildtype (WT) (Homo sapiens, UniProt P00533); test: Biochemical EGFR kinase inhibition assay (Lance Ultra TR-FRET), wildtype
# Summary of the method: as §1
# [6] = IC50 L858R/T790M/C797S (nM), 100 μM ATP
# [7] = Km ATP, read-out: IC50 L858R/T790M/C797S (nM) Km ATP
# [8] = IC50 L858R/C797S (nM), 100 μM ATP
# [9] = Km ATP, read-out: IC50 L858R/C797S (nM) Km ATP
# [10] = IC50 Del19/T790M/C797S (nM), 100 μM ATP
# [11] = Km ATP, read-out: IC50 Del19/T790M/C797S (nM) Km ATP
# [12] = IC50 Del19/C797S (nM), 100 μM ATP
# [13] = Km ATP, read-out: IC50 Del19/C797S (nM) Km ATP
# [14] = Km ATP, read-out: IC50 WT (nM) Km ATP
# [15] = ATP at Km, read-out: IC50 L858R/C797S (nM), Km ATP
# [16] = ATP at Km, read-out: IC50 Del19/T790M/C797S (nM), Km ATP
# [17] = ATP at Km, read-out: IC50 Del19/C797S (nM), Km ATP
# [18] = ATP at Km, read-out: IC50 WT (nM), Km ATP
# [19] = ATP at Km, read-out: IC50 L858R/T790M/C797S (nM), Km ATP
# Chain of EGFR wildtype (WT) (P00533 25-1210): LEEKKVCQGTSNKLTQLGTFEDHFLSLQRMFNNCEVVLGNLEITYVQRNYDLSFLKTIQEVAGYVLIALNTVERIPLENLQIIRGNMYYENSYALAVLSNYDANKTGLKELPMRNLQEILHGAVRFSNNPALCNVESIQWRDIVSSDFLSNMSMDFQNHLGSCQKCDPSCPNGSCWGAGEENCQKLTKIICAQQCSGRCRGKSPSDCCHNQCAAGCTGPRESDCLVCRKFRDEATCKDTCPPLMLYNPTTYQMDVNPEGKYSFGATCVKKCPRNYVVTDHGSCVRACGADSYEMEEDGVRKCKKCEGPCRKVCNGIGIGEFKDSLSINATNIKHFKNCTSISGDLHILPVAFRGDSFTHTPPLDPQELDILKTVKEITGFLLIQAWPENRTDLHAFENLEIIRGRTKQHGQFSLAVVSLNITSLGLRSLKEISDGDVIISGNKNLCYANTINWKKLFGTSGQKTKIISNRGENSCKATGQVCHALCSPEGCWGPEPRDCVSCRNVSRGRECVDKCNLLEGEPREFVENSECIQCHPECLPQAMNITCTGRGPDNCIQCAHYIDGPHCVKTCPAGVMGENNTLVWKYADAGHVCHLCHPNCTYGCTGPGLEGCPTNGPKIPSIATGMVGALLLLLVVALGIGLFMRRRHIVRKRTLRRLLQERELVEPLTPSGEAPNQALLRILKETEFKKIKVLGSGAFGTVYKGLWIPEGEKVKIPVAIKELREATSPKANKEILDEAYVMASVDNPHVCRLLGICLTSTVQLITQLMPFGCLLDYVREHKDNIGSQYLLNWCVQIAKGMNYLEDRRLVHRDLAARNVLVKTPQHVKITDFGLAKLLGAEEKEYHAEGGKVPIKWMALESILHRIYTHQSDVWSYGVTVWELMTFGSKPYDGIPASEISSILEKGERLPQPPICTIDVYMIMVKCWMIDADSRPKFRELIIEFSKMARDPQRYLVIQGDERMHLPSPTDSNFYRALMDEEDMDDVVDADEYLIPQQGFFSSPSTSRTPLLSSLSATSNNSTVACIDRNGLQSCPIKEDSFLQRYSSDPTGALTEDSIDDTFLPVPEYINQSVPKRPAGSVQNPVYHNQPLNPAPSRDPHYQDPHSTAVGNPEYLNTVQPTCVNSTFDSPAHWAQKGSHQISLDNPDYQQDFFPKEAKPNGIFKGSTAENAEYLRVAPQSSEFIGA
# Chain of EGFR L858R/C797S (P00533 25-1210 C797S/L858R): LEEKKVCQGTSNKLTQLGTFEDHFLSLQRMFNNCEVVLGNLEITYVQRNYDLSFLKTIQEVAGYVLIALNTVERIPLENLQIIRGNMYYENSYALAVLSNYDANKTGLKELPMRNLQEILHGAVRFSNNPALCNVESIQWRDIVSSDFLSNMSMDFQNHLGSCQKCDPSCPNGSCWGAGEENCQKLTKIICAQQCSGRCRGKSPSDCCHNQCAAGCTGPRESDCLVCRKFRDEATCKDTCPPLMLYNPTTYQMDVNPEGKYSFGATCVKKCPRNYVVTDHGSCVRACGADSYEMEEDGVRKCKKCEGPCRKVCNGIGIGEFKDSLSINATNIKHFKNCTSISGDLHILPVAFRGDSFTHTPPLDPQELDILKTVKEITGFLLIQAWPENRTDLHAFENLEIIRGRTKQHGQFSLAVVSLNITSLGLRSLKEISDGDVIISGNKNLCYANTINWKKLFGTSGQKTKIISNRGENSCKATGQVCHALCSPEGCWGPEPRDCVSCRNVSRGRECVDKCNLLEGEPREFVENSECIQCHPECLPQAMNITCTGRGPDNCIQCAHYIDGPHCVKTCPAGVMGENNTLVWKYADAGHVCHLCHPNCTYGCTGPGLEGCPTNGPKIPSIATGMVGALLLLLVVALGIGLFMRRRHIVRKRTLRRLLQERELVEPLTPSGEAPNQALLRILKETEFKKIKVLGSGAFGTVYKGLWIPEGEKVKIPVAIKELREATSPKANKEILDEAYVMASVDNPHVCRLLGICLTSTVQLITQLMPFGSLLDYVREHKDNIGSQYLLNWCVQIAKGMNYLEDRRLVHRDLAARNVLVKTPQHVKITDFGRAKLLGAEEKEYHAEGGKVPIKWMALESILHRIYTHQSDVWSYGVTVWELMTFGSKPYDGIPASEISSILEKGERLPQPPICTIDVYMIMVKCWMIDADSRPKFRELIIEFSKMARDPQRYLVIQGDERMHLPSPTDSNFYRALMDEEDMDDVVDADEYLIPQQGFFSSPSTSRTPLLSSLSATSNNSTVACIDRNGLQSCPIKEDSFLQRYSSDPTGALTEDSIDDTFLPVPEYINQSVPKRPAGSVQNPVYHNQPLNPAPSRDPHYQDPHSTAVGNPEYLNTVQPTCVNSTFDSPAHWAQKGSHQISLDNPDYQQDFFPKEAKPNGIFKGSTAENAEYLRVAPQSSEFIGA
# Chain of EGFR Del19/T790M/C797S (P00533 with tags, fused parts or gaps DEL746-750/T790M/C797S): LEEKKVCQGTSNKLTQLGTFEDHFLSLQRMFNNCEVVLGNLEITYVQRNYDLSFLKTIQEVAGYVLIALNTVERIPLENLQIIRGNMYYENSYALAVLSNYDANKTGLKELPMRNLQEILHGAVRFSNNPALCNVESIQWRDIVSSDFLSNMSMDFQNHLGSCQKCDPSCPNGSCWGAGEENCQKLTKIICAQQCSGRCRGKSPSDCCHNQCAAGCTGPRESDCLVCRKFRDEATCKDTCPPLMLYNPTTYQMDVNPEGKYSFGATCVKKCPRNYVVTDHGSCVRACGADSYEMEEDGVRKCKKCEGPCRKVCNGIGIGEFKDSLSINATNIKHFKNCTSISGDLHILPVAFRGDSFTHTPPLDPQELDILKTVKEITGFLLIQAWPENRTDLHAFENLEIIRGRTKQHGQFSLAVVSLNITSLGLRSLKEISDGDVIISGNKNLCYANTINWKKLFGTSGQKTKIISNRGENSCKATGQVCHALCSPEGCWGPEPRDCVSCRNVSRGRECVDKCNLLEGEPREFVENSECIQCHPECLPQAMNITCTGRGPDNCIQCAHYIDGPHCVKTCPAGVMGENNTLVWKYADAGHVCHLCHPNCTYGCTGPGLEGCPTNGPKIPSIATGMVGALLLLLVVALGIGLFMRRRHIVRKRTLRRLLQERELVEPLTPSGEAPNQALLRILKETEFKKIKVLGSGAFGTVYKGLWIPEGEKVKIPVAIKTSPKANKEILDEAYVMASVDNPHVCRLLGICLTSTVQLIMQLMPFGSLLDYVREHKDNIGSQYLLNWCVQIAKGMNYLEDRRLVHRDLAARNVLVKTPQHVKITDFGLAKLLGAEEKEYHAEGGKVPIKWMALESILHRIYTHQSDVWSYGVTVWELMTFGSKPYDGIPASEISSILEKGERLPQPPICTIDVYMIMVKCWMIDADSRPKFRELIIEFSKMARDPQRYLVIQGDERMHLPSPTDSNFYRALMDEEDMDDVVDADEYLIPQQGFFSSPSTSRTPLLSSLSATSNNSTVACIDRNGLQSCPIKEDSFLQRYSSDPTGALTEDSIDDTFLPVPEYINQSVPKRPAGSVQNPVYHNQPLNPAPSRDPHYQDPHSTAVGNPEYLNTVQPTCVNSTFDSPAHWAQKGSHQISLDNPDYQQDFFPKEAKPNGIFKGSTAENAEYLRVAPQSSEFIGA
# Chain of EGFR L858R/T790M/C797S (P00533 25-1210 T790M/C797S/L858R): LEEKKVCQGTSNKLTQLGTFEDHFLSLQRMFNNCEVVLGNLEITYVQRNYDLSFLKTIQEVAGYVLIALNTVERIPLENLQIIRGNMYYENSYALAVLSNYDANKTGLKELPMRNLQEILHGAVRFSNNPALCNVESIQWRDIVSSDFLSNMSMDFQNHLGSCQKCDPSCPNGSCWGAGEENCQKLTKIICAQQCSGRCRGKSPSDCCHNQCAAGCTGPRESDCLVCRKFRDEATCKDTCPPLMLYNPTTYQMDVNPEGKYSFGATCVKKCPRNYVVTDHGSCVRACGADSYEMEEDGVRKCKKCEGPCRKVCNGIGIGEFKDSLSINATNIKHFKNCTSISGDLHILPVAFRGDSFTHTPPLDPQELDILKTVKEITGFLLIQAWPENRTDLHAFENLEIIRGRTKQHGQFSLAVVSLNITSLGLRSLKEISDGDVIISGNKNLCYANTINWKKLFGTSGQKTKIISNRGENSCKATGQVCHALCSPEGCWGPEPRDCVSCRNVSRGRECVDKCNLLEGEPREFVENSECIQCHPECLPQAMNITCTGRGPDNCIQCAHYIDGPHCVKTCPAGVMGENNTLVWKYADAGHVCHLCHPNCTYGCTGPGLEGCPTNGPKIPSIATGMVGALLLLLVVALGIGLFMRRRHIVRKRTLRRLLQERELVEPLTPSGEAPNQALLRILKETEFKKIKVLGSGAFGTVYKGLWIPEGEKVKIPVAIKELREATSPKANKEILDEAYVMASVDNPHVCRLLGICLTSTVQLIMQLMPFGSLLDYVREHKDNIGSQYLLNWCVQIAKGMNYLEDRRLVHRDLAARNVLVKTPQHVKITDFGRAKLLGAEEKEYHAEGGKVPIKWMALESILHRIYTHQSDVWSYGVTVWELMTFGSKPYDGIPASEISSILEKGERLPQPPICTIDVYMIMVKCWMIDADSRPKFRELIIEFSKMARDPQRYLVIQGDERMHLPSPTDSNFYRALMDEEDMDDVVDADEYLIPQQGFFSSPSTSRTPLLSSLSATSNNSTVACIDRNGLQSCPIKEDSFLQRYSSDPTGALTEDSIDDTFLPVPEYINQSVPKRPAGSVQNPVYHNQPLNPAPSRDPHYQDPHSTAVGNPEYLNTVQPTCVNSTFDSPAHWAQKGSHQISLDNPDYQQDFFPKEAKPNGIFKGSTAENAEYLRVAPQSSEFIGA
SMILES,"IC50 [1, 6] [nM]","IC50 [1, 7] [nM]","IC50 [2, 8] [nM]","IC50 [2, 9] [nM]","IC50 [3, 10] [nM]","IC50 [3, 11] [nM]","IC50 [4, 12] [nM]","IC50 [4, 13] [nM]","IC50 ([5]; IC50 WT (nM), 100 μM ATP) [nM]","IC50 [5, 14] [nM]","IC50 [2, 15] [nM]","IC50 [3, 16] [nM]","IC50 [4, 17] [nM]","IC50 [5, 18] [nM]","IC50 [1, 19] [nM]","IC50 ([1]; Km ATP, read-out: IC50 L858R/T790M/C797S (nM), Km ATP) [nM]","IC50 ([2]; Km ATP, read-out: IC50 L858R/C797S (nM), Km ATP) [nM]","IC50 ([3]; Km ATP, read-out: IC50 Del19/T790M/C797S (nM), Km ATP) [nM]","IC50 ([4]; Km ATP, read-out: IC50 Del19/C797S (nM), Km ATP) [nM]","IC50 ([5]; Km ATP, read-out: IC50 WT (nM), Km ATP) [nM]"
"CN1CCn2ncc(C#Cc3cnc(Nc4ccnc(-c5cnn(S(=O)(=O)C6CC6)c5)n4)cc3N3CCC(C)(CO)CC3)c2C1 [Example 150, (1-(2-((2-(1-(Cyclopropylsulfonyl)-1H-pyrazol-4-yl)pyrimidin-4-yl)amino)-5-((5-methyl-4,5,6,7-tetrahydropyrazolo[1,5-a]pyrazin-3-yl)ethynyl)pyridin-4-yl)-4-methylpiperidin-4-yl)methanol]",0.5,0.2,8.9,2.2,0.5,0.5,0.7,0.8,3760,4.9,–,–,–,–,–,–,–,–,–,–
"O=S(=O)(C1CC1)n1cc(-c2nccc(Nc3cc(N4CCC5(CCO5)CC4)c(C#Cc4cccnc4)cn3)n2)cn1 [Example 283, 2-(1-(Cyclopropylsulfonyl)-1H-pyrazol-4-yl)-N-(5-(pyridin-3-ylethynyl)-4-(1-oxa-7-azaspiro[3.5]nonan-7-yl)pyridin-2-yl)pyrimidin-4-amine]",3,–,11.2,–,9.5,–,7.9,–,> 10000,–,1.9,2,3.1,16.2,–,–,–,–,–,–
"CNCC1(C)CCN(c2cc(Nc3ccnc(-c4cnn(S(=O)(=O)C5CC5)c4)n3)ncc2C#Cc2cnn(C)c2)CC1 [Example 146, 2-(1-(Cyclopropylsulfonyl)-1H-pyrazol-4-yl)-N-(5-((1-methyl-1H-pyrazol-4-yl)ethynyl)-4-(4-methyl-4-((methylamino)methyl)piperidin-1-yl)pyridin-2-yl)pyrimidin-4-amine]",0.1,0.04,1.5,0.3,0.2,0.1,0.5,0.2,348,0.8,–,–,–,–,–,–,–,–,–,–
"O=C(N1CCC(C#Cc2cnc(Nc3ccnc(-c4cnn(S(=O)(=O)C5CC5)c4)n3)cc2NCC2CCC(O)CC2)C1)C(F)(F)F (stereo not drawn) [Example 409, 1-(3-((6-((2-(1-(Cyclopropylsulfonyl)-1H-pyrazol-4-yl)pyrimidin-4-yl)amino)-4-((((1 r,4r)-4-hydroxycyclohexyl)methyl)amino)pyridin-3-yl)ethynyl)pyrrolidin-1-yl)-2,2,2-trifluoroethan-1-one]",10.5,–,648,–,4.3,–,81.3,–,> 10000,–,–,–,–,–,–,–,–,–,–,–
"CC1(CO)CCN(c2cc(Nc3ccnc(-c4cnn(CC(F)F)c4)n3)ncc2C#Cc2cnn(C(F)(F)F)c2)CC1 [Example 267, (1-(2-((2-(1-(2,2-Difluoroethyl)-1H-pyrazol-4-yl)pyrimidin-4-yl)amino)-5-((1-(trifluoromethyl)-1H-pyrazol-4-yl)ethynyl)pyridin-4-yl)-4-methylpiperidin-4-yl)methanol]",3.1,–,130,–,1.9,–,12.4,–,> 10000,–,4.1,1.6,24.2,252,0.8,–,–,–,–,–
"CC1(CO)CCN(c2cc(Nc3ccnc(-c4cnn(S(=O)(=O)C5CC5)c4)n3)ncc2C#Cc2ccncc2)CC1 [Example 258, (1-(2-((2-(1-(Cyclopropylsulfonyl)-1H-pyrazol-4-yl)pyrimidin-4-yl)amino)-5-(pyridin-4-ylethynyl)pyridin-4-yl)-4-methylpiperidin-4-yl)methanol]",0.5,–,7.7,–,0.5,–,0.5,–,5310,–,1.8,0.3,0.7,5,0.1,–,–,–,–,–
"C=CC#Cc1cnc(Nc2ccnc(-c3cnn(S(=O)(=O)C4CC4)c3)n2)cc1N1CCC(C)(CO)CC1 [Example 277, (1-(5-(But-3-en-1-yn-1-yl)-2-((2-(1-(cyclopropylsulfonyl)-1H-pyrazol-4-yl)pyrimidin-4-yl)amino)pyridin-4-yl)-4-methylpiperidin-4-yl)methanol]",1.8,–,33.7,–,0.8,–,3.3,–,> 10000,–,2.5,0.6,1.4,11.4,0.3,–,–,–,–,–
"O=S(=O)(C1CC1)n1cc(-c2nccc(Nc3cc(N[C@H]4CC[C@@H](O)CC4)c(C#Cc4cnn(CC(F)(F)F)c4)cn3)n2)cn1 [Example 339, (1s,4s)-4-((2-((2-(1-(Cyclopropylsulfonyl)-1H-pyrazol-4-yl)pyrimidin-4-yl)amino)-5-((1-(2,2,2-trifluoroethyl)-1H-pyrazol-4-yl)ethynyl)pyridin-4-yl)amino)cyclohexan-1-ol]",1,–,29.7,–,0.9,–,7.5,–,> 10000,–,–,–,–,–,–,0.5,4.9,1,3.8,18.2
"CC1(CO)CCN(c2cc(Nc3ccnc(-c4cnn(S(=O)(=O)C5CC5)c4)n3)ncc2C#Cc2cc(C(F)(F)F)n[nH]2)CC1 [Example 290, (1-(2-((2-(1-(Cyclopropylsulfonyl)-1H-pyrazol-4-yl)pyrimidin-4-yl)amino)-5-((3-(trifluoromethyl)-1H-pyrazol-5-yl)ethynyl)pyridin-4-yl)-4-methylpiperidin-4-yl)methanol]",8.6,–,> 10000,–,5.7,–,26.2,–,> 10000,–,–,–,–,–,–,–,–,–,–,–
"Cn1cc(C#Cc2cnc(Nc3ccnc(-c4cnn(S(=O)(=O)C5CC5)c4)n3)cc2N2CCC(OC(F)(F)F)CC2)cn1 [Example 67, 2-(1-(Cyclopropylsulfonyl)-1H-pyrazol-4-yl)-N-(5-((1-methyl-1H-pyrazol-4-yl)ethynyl)-4-(4-(trifluoromethoxy)piperidin-1-yl)pyridin-2-yl)pyrimidin-4-amine]",27.7,–,209,–,13.3,–,181,–,> 10000,–,–,–,–,–,–,–,–,–,–,–
"CN(C)CC1(O)CCN(c2cc(Nc3ccnc(-c4cnn(S(=O)(=O)C5CC5)c4)n3)ncc2C#Cc2cnn(C)c2)CC1 [Example 315, 1-(2-((2-(1-(Cyclopropylsulfonyl)-1H-pyrazol-4-yl)pyrimidin-4-yl)amino)-5-((1-methyl-1H-pyrazol-4-yl)ethynyl)pyridin-4-yl)-4-((dimethylamino)methyl)piperidin-4-ol]",6.8,–,78.6,–,3.7,–,52.2,–,> 10000,–,–,–,–,–,–,–,–,–,–,–
"CN(C)C[C@H]1CC[C@@H](Nc2cc(Nc3ccnc(-c4cnn(S(=O)(=O)C5CC5)c4)n3)ncc2C#Cc2cnn(C)c2)CC1 [Example 312, N^2-(2-(1-(Cyclopropylsulfonyl)-1H-pyrazol-4-yl)pyrimidin-4-yl)-N^4-((1s,4s)-4-((dimethylamino)methyl)cyclohexyl)-5-((1-methyl-1H-pyrazol-4-yl)ethynyl)pyridine-2,4-diamine]",0.4,–,12.2,–,0.3,–,2.4,–,6180,–,1.1,0.3,1.1,9.6,0.1,–,–,–,–,–
